Earlier results on one compound are cited in patent US12018199B2, “Fire retardant and fire blocking composition for use in forest fires, and method of making same” (priority 2020, dated 2024).

For this data set the following is noted: in water.

Where two headings read alike, the source gives them in different places.

With `NC(N)=O` [Urea, urea], the Solubility (0 °C) is recorded as 66.7 g/100 g of water; the Solubility (20 °C) is 108 g/100 g of water; the Solubility (40 °C) was 167 g/100 g of water; the Solubility (60 °C) is 251 g/100 g of water; the Solubility (80 °C) is reported as 400 g/100 g of water; the Solubility (100 °C) is 733 g/100 g of water.
